Assay results: BindingDB's records for doi:10.1016/j.bioorg.2014.12.001 (Hazara University, 2015)

molecular target: Alpha-glucosidase MAL12 (Saccharomyces cerevisiae (strain ATCC 204508 / S288c), UniProt P53341); assay: Alpha-glucosidase Assay
Experimental: Typically, α-glucosidase activity was assayed in 50 mM phosphate buffer (pH 6.8) containing 5% v/v DMSO and PNP glycoside was used as a substrate. The inhibitors were pre-incubated with enzyme at 37 °C for 0.5 h. The substrate was then added and the enzymatic reaction was carried out at 37 °C for 60 min. The reaction was monitored spectrophotometrically by measuring the absorbance at 400 nm.

Sequence of Alpha-glucosidase MAL12 (P53341 whole entry): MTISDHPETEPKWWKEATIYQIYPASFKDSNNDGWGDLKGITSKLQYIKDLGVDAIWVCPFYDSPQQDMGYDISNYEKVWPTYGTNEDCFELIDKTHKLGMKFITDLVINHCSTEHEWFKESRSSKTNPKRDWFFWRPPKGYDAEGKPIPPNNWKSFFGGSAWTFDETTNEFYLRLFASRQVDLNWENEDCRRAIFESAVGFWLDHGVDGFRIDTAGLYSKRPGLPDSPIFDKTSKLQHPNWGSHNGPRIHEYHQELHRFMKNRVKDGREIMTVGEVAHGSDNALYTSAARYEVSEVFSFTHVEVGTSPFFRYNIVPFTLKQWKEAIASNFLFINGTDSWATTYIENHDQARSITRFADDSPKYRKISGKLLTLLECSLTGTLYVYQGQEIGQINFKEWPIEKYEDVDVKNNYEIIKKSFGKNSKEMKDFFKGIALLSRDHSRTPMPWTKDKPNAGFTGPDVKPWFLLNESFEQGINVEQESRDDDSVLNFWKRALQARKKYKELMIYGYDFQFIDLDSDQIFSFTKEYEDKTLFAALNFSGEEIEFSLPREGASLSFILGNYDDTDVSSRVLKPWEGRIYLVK

| SMILES | IC50 |
| --- | --- |
| O=C(CSc1nnc2c(n1)[nH]c1ccccc12)c1cccc(O)c1 [2-(5H-[1,2,4]triazino[5,6-b]indol-3-ylthio)-1-(3-hydroxyphenyl)-ethanone (1)] | 2.46 µM |
| O=C(CSc1nnc2c(n1)[nH]c1ccccc12)c1cc2ccccc2oc1=O [3-(2-(5H-[1,2,4]triazino[5,6-b]indol-3-ylthio)acetyl)-2H-chromen-2-one (7)] | 37.4 µM |
| COc1ccc(C(=O)CSc2nnc3c(n2)[nH]c2ccccc23)cc1 [2-(5H-[1,2,4]triazino[5,6-b]indol-3-ylthio)-1-(4-methoxyphenyl)-ethanone (4)] | 28.9 µM |
| O=C(CSc1nnc2c(n1)[nH]c1ccccc12)c1ccc(-c2ccccc2)cc1 [2-(5H-[1,2,4]triazino[5,6-b]indol-3-ylthio)-1-(biphenyl-4-yl)-ethanone (2)] | 78.4 µM |
| O=C(CSc1nnc2c(n1)[nH]c1ccccc12)c1cccc(Br)c1 [2-(5H-[1,2,4]triazino[5,6-b]indol-3-ylthio)-1-(3-bromophenyl)-ethanone (11)] | 37.1 µM |
| COc1ccccc1C(=O)CSc1nnc2c(n1)[nH]c1ccccc12 [2-(5H-[1,2,4]triazino[5,6-b]indol-3-ylthio)-1-(2-methoxyphenyl)-ethanone (9)] | 51.6 µM |
| O=C(CSc1nnc2c(n1)[nH]c1ccccc12)c1cccc(F)c1 [2-(5H-[1,2,4]triazino[5,6-b]indol-3-ylthio)-1-(3-flourophenyl)-ethanone (5)] | 38.1 µM |

The next lines start with the values.

| IC50 | SMILES |
| --- | --- |
| 313 µM | COc1cccc(C(=O)CSc2nnc3c(n2)[nH]c2ccccc23)c1 [2-(5H-[1,2,4]triazino[5,6-b]indol-3-ylthio)-1-(3-methoxyphenyl)-ethanone (10)] |
| 36.9 µM | CC(Sc1nnc2c(n1)[nH]c1ccccc12)C(=O)c1ccccc1 (stereo not given) [2-(5H-[1,2,4]triazino[5,6-b]indol-3-ylthio)-1-phenylpropane-1-one (8)] |
| 37.8 µM | O=C(CSc1nnc2c(n1)[nH]c1ccccc12)c1ccc(Br)cc1 [2-(5H-[1,2,4]triazino[5,6-b]indol-3-ylthio)-1-(4-bromophenyl)-ethanone (3)] |
